# Data published in patent US7687540B2, “Substituted propane phosphinic acid esters” (Aventis Pharmaceuticals Inc., priority 2005, dated 2010).
# How the values were obtained:
# Male Wistar rats = assay: Chronic Mild Stress Model (CMS), sucrose consumption; type: in vivo; conditions: 3 and 30 mg/kg orally, daily for five weeks; imipramine 10 mg/kg ip
# Excerpt: CMS uses mild stressors, such as food and water deprivation, cage tilts, changes of cage mates, etc. Over a period of weeks of exposure to the mild stressors, the animals gradually reduce their consumption of a highly preferred sucrose solution which persists (in untreated animals) for several weeks following the cessation of stress. This decreased sensitivity to reward (the sucrose solution) reflects anhedonia, a symptom of a major depressive episode (see for example, Behavioral Pharmacol. 5: Suppl. 1, p. 86 (1994) where lithium, carbamazepine and ketoconazole were evaluated in CMS; Psychopharmacology 93:358-364 (1987) where a tricyclic antidepressant was evaluated in CMS; Behavioral Pharmacology: 5:344-350 (1994) where a catechol-O-methyl transferase inhibitor was evaluated in CMS). […]
# The animals are first trained to consume a 1% sucrose solution; training consists of eight 1 hour baseline tests in which sucrose is presented, in the home cage, following 14 hours food and water deprivation; intake is measured by weighing pre-weighed bottles containing the sucrose solution at the end of the test. Subsequently, sucrose consumption is monitored, under similar conditions, at weekly intervals throughout the whole experiment. […]
# Results are analyzed by multiple analysis of variance, followed by Fisher's LSD test for post hoc comparisons of means.
# [1] = Brain levels after oral dosing in mice by LC/MS/MS; type: in vivo, Male CD1 mice; conditions: brains collected at 2, 4 and 7 hrs post-dose after oral dosing of test compounds
# Description: Animals: Male CD1 mice (Charles River) weighing about 25 g—with free access to food and water.
# Dose Groups The compounds of this invention were administered to the test animals at a dose, which is molar equivalent to 10 mg/kg of the parent compound, ((R)-3-amino-2-hydroxy-propyl)-cyclohexylmethyl-phosphinic acid. Each of the test compounds was formulated at this dose level to yield a dose volume of 10 mL/kg and administered by oral gavage to a group of three mice per time point in each study group. Formulations: The compounds of this invention were dissolved in vehicle of 0.2% Tween 80 and 0.5% methylcellulose (MC) at a concentration of about 1 mg/mL. Samples: The blood samples (for plasma) were collected at the following time points: 5, 15 30 and 45 min […]; and 1, 2, 3, 4, 5, and 7 hrs post-dose. Brains were collected at 2, 4 and 7 hrs post-dose Blood Handling The blood samples were added to tubes containing 20 μL of a stock 10 mg/ml solution of sodium fluoride. The blood tubes were then stored in a refrigerator at approximately about 4° C. […] Bioanalysis: All plasma and brain samples were then analyzed for concentrations of the test compound as well as the parent compound, ((R)-3-amino-2-hydroxy-propyl)-cyclohexylmethyl-phosphinic acid by LC/MS/MS. […]
# Whereas, in most cases, the levels of the test compound was too small to be detected for all of the test compounds analyzed.
smiles,measurement,setting,value
"NC[C@@H](O)CP(=O)(O)CC1CCCCC1 [parent compound, ((R)-3-amino-2-hydroxy-propyl)-cyclohexylmethyl-phosphinic acid]",activity in CMS (sucrose intake) compared with imipramine,Male Wistar rats,equal to that of imipramine
same,concentration of the parent compound in brain,[1],proportional to the concentration of the parent compound in plasma
